Data taken from patent US6610716B2, “Cyanomethyl substituted thiazoliums and imidazoliums and treatments of disorders associated with protein aging” (Alteon Incorporated, priority 2000, dated 2003).
Structures can show the parent of a compound that is named as a salt.

Key:
Phase Ia clinical trial = assay type: in vivo, human
Source text: When the heart pumps blood into the vascular system, the ability of the arteries to expand helps to push blood through the body. When arteries become stiff, as they do in the natural process of aging. the ability of the arteries to expand is diminished and also has consequences for the heart. The heart has to work harder to pump the blood into the stiff arteries, and eventually hypertrophies (enlarges in size) to accomplish this. A hypertrophied heart is an inefficient pump, and is one of the disorders that leads to congestive heart failure. […] The potential clinical benefit of this is to lessen the effort that the heart must expend to push blood throughout the body. The effect is also believed to contribute to preventing hypertrophy and subsequent inefficiency of the heart, which inefficiency would contribute to congestive heart failure.
Atherosclerosis is a disease that involves deposition of blood lipids in plaque in the arteries throughout the body. In coronary arteries, accumulation of plaque progressively leads to reduced coronary flow, with occlusion of the arteries causing focal death of cardiac tissue (myocardial infarction, heart attack). If the amount of tissue that dies is large enough, death ensures. In a Phase Ia trial, one compound believed to work by a mechanism shared by the compounds of the invention, 3-[2-phenyl-2-oxoethyl]-4,5-dimethyl-thiazolium salt, […] the amount of circulating triglycerides (lipids). […] Reducing local deposits of plaque should eventually lessen the risk of myocardial infarction and death due to heart attacks.
Pulse pressure is the difference between systolic and diastolic blood pressure. In a young human, systolic pressure is typically 120 mm Hg and diastolic pressure is 80 mm Hg, resulting in a pulse pressure of 40 mm Hg. With age, in many individuals pulse pressure increases, largely due to the increase in systolic pressure that results from stiff vessel disease. In individuals with pulse pressure greater than 60 mm Hg there is an increased risk of death from cardiovascular morbidities.

[1] = Dog model for diabetes, indicators of ventricular elasticity; assay type: in vivo
Source text: (§1) Cardiovascular risk correlates more closely with the systolic and the pulse pressure than with the diastolic pressure. In diabetic patients, the cardiovascular risk profile of diabetic patients is strongly correlated to duration of diabetes, glycemic control and blood pressure. Structural matrix proteins contribute to the function of vessels and the heart, and changes in the physical behavior of cardiovascular walls are believed to be important determinants of circulatory function. In elderly individuals, the loss of compliance in the aorta leads to isolated systolic hypertension, which in turn expands the arterial wall and thereby diminishes the dynamic range of elasticity. […] Treatment with 3-[2-phenyl-2-oxoethyl]-4,5-dimethyl-thiazolium salt lead to a reduction in the mass of collagen in cardiovascular tissues.

[2] = In vivo studies of vascular stiffening and cardiovascular collagen; set-up: species or system rodents, canines and primates
Source text: as §1

TGFbeta = experiment: In situ hybridization studies; assay type: in vivo
Source text: as §1

Type IV collagen = experiment: In situ hybridization studies; assay type: in vivo
Source text: as §1

[3] = diabetic rats; cited from earlier work
[4] = in vivo; cited from earlier work
[5] = streptozotocin-diabetic rat model; cited from earlier work
red blood cells = settings: in vivo; cited from earlier work
[6] = use of chlorhexidine; cited from earlier work

## Cc1sc[n+](CC#N)c1C.[Br-]
other
  melting point: 184 to 186 °C (dec.)

## N#CC[n+]1csc2c1CCCC2.[Br-]
other
  melting point: 215 to 217 °C (dec.)

## Cc1sc[n+](CC(=O)c2ccccc2)c1C [3-[2-phenyl-2-oxoethyl]-4,5-dimethyl-thiazolium salt]
Phase Ia clinical trial; Phase Ia clinical trial
  stiffness of arteries, as measured by the ratio of stroke volume (ml) to pulse pressure (mm Hg): reverse the stiffness of arteries
Phase Ia clinical trial; Phase Ia trial
  amount of circulating triglycerides (lipids): increased
Phase Ia clinical trial; Phase Ia trial, believed primary cause of the pulse pressure decrease
  systolic blood pressure: lowering the systolic blood pressure
Phase Ia clinical trial; Phase Ia trial, elderly patients with pulse pressures greater than 60 mm Hg, statistically significant
  pulse pressure: reduced pulse pressure
[1]
  end diastolic pressure: returned to a value at about the mid-point between the disease impaired value and the value for control dogs
  end diastolic volume: returned to a value at about the mid-point between the disease impaired value and the value for control dogs
[2]; in vivo
  mass of collagen in cardiovascular tissues: reduction
[2]; in vivo studies in rodents, canines and primates
  vascular stiffening: substantially ameliorating vascular stiffening
TGFbeta
  expression of TGFbeta: reduces the expression
Type IV collagen
  expression of Type IV collagen: reduces the expression

## N=C(N)NN [aminoguanidine]
[3]
  aortic wall protein cross-linking: diminishes
[4]
  immunoglobulin trapping in the kidney: reduction
[5]
  increased glomerular basement membrane thickness: prevented
Red blood cells
  diabetes-induced changes in the deformability of red blood cells: prevent, treat or reverse such changes

## [H]/N=C(\N/C(=N/[H])NCCCCCCNC(=N)NC(=N)Nc1ccc(Cl)cc1)Nc1ccc(Cl)cc1 [chlorhexidine]
[6]
  dental pellicle: increased dental pellicle
